In patent US20230314443A1, “METHODS OF IDENTIFYING INTERACTIONS OF A COMPOUND AND A CONDENSATE, OR A COMPONENT THEREOF, AND USES THEREOF” (Dewpoint Therapeutics, Inc., priority 2020, published 2023):

Legend:
FUS-mEGFP/RNA droplets = target: T1, FUS-mEGFP/RNA droplets (Homo sapiens, UniProt P35637); experiment: Rho800 titration in FUS-mEGFP/RNA droplets (confocal imaging of Rho800 and FUS-mEGFP intensity inside droplets); conditions: increasing Rho800 concentrations, FIG. 4
T1 sequence (P35637 1-526): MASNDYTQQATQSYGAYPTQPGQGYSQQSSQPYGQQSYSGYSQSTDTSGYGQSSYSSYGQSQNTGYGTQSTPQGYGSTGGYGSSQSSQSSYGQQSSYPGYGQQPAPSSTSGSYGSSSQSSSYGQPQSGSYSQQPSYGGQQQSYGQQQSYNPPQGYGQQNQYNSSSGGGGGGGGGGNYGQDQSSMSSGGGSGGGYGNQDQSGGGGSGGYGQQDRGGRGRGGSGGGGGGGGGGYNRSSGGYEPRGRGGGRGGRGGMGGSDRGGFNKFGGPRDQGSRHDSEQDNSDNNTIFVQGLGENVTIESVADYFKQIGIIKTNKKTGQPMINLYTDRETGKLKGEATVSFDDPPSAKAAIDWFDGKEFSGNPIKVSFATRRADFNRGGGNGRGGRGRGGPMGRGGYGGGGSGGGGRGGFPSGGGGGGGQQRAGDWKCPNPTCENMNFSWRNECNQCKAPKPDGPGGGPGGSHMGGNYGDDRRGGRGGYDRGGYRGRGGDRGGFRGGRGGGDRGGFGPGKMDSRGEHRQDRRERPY
Protocol: For partitioning study, droplets were prepared in a low-attachment 384-well plate by mixing recombinant FUS-mEGFP protein with synthetic PrD RNA, in the presence of the indicated concentration of Rho800, at a final concentration of […] FUS-mEGFP and 250 nM PrD RNA, using an automated liquid handler. The droplets were incubated at room temperature, in the dark for 4 hours and imaged using a high content confocal fluorescence microscope. Values indicated on the y-axis of FIG. 4 (n=3) were obtained by quantitative image analysis and represent the mean per well intensity of FUS-mEGFP and Rho800 inside segmented droplets.

FUS-RRM = target: T2, FUS-RRM (Homo sapiens, UniProt P35637); experiment: NMR 1H/15N-HSQC titration of FUS-RRM with Rho800 (chemical shift perturbations); assay type: binding; conditions: CSPs by 1H/15N-HSQC 2D-NMR; FIG. 5A, 5B
T2 construct: made in house; host or cells: E. coli
T2 sequence (P35637 285-371 limits assumed): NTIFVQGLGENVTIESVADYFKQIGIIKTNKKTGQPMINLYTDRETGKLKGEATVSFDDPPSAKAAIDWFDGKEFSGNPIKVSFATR
Protocol: For binding study, recombinant ^15N-isotope and ^15N/^13C-labeled FUS-RRM proteins were expressed in E. coli and purified using published methods. NMR peak assignments were transferred from publicly available data repositories and confirmed using standard 3D NMR methods. […] protein was titrated with Rho800, ^1H/^15N-HSQC (heteronuclear single quantum coherence) were recorded, and chemical shift perturbations (CSPs) were calculated from the […] Rho800 spectra.

FUS-SNAP protein = target: T3, FUS-SNAP protein (Homo sapiens, UniProt P35637); experiment: Binding affinity of RhoB to FUS-SNAP protein in the light phase (Dianthus MST); conditions: FIG. 3B
T3 sequence (P35637 1-526): T1 sequence (P35637 1-526)
Protocol: The binding affinity (Kd) of RhoB to FUS-SNAP protein in the light phase was measured using Dianthus MST technology.

FUS-SNAP condensates = target: T4, FUS-SNAP condensates (Homo sapiens, UniProt P35637); experiment: Partitioning of RhoB into FUS-SNAP condensates formed in vitro (fluorescence and mass spectrometry); conditions: RhoB 5 μM and 1.25 μM; fluorescence spectroscopy (RhoB-FL) and mass spectroscopy (RhoB-MS); fraction of RhoB in supernatant; FIG. 3A
T4 sequence (P35637 1-526): T1 sequence (P35637 1-526)
Protocol: SNAP-tagged FUS protein (“FUS-SNAP”) and RhoB were mixed and subjected to a phase separation condition. The final concentration of RhoB in the reaction was 5 μM and 1.25 μM. For control experiment, no RhoB was added. The partition characteristic of RhoB to FUS-SNAP condensate was then measured by both a fluorescence spectroscopy and a mass spectroscopy-based technique described herein.
Images of the condensate droplets were acquired with a confocal microscope for appropriate setting for RhoB. The background signal of FUS-SNAP droplets in the absence of RhoB was also recorded. Fluorescence intensity was measured inside a FUS-SNAP condensate and in a region next to (outside) the FUS-SNAP condensate, and corrected for background signal (no RhoB controls), to calculate the fraction of RhoB in extra-condensate solution (i.e., supernatant).
A mass spectrometry-based method was used to measure the partition characteristics of RhoB and compared to measurements obtained using the fluorescence-based assay above. […] The amount of RhoB in the supernatant and a reference reaction were measured using mass spectrometry. The partition characteristic was then calculated based on the fraction of RhoB in extra-condensate solution (i.e., supernatant).

FUS-EGFP condensate = target: T5, FUS-EGFP condensate (Homo sapiens, UniProt P35637); experiment: Modulation of FUS-EGFP partitioning into the condensate by RhoB (confocal microscopy); assay type: biochemical; conditions: 1.5 μM RhoB vs no RhoB; FIG. 3C
T5 sequence (P35637 1-526): T1 sequence (P35637 1-526)
Protocol: EGFP-tagged FUS protein (“FUS-EGFP”) and RhoB were mixed and subjected to phase separation condition. The final concentration of RhoB in the reaction was 1.5 μM. For control experiment, no RhoB was added. Images were acquired with a confocal microscope, and EGFP signal inside (I-in) and outside (I-out) of the FUS-EGFP condensate was measured as described above.

binding of Rho800 to FUS-RRM domain (FUS-RRM) | Kd (FUS-SNAP protein) [µM] | partitioning of RhoB into FUS-SNAP condensates (FUS-SNAP condensates) | partitioning of EGFP-labeled FUS into the condensate in the presence of RhoB (FUS-EGFP condensate) | Compound | partitioning of Rho800 into the condensate droplets (FUS-mEGFP/RNA droplets; 4 hours at room temperature) | partitioning of FUS-mEGFP in the condensate droplets in the presence of Rho800 (FUS-mEGFP/RNA droplets)
binds directly to the FUS-RRM domain |  |  |  | N#CC1=c2cc3c4c(c2Oc2c1cc1c5c2CCCN5CCC1)CCC[N+]=4CCC3 [Rho800] | increased partitioning of the compound into the condensate droplets | FUS-mEGFP de-partitioning from the condensate droplets
 | 17.1 | partitions into FUS-SNAP condensates | partitioned less into the condensate | CCN(CC)c1ccc2c(-c3ccccc3C(=O)O)c3ccc(=[N+](CC)CC)cc-3oc2c1 [RhoB, Rhodamine B] |  | 
